Assay results reported in BigSolDB 2.1.

Cc1ncc(COP(=O)(O)O)c(C=O)c1O.O
solubility (mole fraction)
Conditions	278.15 K	283.15 K	288.15 K	293.15 K	298.15 K	303.15 K	308.15 K	313.15 K	318.15 K
in acetone	4.8e-07	6.8e-07	8.7e-07	1.26e-06	1.74e-06	2.42e-06	3.19e-06	4.06e-06	5.02e-06
in ethanol	2.81e-06	3.12e-06	3.5e-06	3.95e-06	4.18e-06	4.86e-06	6e-06	7.22e-06	8.59e-06
in isopropanol	2.35e-06	2.45e-06	2.77e-06	3.2e-06	3.73e-06	4.59e-06	5.66e-06	7.04e-06	9.17e-06
in methanol	4.5e-06	5.92e-06	8.99e-06	1.33e-05	1.83e-05	2.39e-05	3.18e-05	4.17e-05	5.38e-05
in water	0.000216	0.000247	0.000284	0.000333	0.000388	0.000465	0.000558	0.00066	0.000803
